The values below come from patent US7622464B2, “Morpholinyl-urea derivatives for use in the treatment of inflammatory diseases” (Glaxo Group Limited, priority 2002, dated 2009).

This test addresses eosinophils purified from human peripheral blood. Description: Eosinophil chemotaxis assay (eotaxin-induced). The conditions noted are these: functional pKi; inhibition of human eosinophil chemotaxis to eotaxin (EC80 concentration). It counts as cell-based. How it is done:
(b) Eosinophil Chemotaxis Assay.
Compounds were evaluated for their inhibitory effect on eosinophil chemotaxis. Eosinophils were purified from human peripheral blood by standard CD16 cell depletion using a Miltenyi cell separation column and a magnetic Super Macs magnet as previously described (Motegi & Kita, 1998; J. Immunology. 161:4340-6). Cells were re-suspended in RPMI 1640/10% FCS solution and incubated with calcein-AM (Molecular Probes) at 37° C. for 30 mins. Following incubation, the eosinophils were centrifuged at 400 g for 5 min and re-suspended in RPMI/FCS at 2.2 million/ml. Cells were then incubated in the presence of increasing concentration of compounds (1 pM to 30 μM) at 37° C. for 30 mins. For control responses cells were incubated with RPMI/FCS only. The agonist eotaxin (an EC80 concentration) was added to the lower chamber of a 96 well chemotaxis plate (5 μm filter: Receptor Technologies). Eosinophils (50 μl of 2 million/ml cells) were added to the top chamber of the filter plate and incubated at 37° C. for 45 mins. Cells remaining on top of the chemotaxis filter were removed and the number of eosinophils which had migrated were quantified by reading the plate on a fluorescent plate reader. Inhibition curves for the effect of compounds on eosinophil chemotaxis were analysed by fitting the data with a four parameter logistic equation. […]

The structures appear in SMILES notation.

`CNC(=O)c1csc(CNC(=O)NC[C@H]2CN(Cc3ccc(Cl)c(Cl)c3)CCO2)c1` [Example 116, 5-{3-[(2S)-4-(3,4-Dichlorobenzyl)-morpholin-2-ylmethyl]-ureidomethyl}-thiophene-3-carboxylic acid methylamide] gave a fpKi of 9.8. With `O=C(NCc1nnn(CC2CC2)n1)NC[C@H]1CN(Cc2ccc(Cl)c(Cl)c2)CCO1` [Example 97, 1-(2-Cyclopropylmethyl-2H-tetrazol-5-ylmethyl)-3-[(2S)-4-(3,4-dichlorobenzyl)morpholin-2-ylmethyl]-urea] the figure was 9.2.
